Where two headings read alike, the source gives them in different places. Where only a bound is given, the exact number is not on record here.

One test addresses CDK2/CCNE1 (Homo sapiens, UniProt P24941). In words: CDK2 homogeneous time-resolved fluorescence (HTRF) kinase assay. The test is classed as biochemical. The settings on record: CDK2/CCNE. In outline: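 An HTRF format measures CDK2/CCNE1 (3 nM) phosphorylating a 4E-BP1 Thr37/46 peptide at high (1 mM) ATP. Reactions run one hour at 23 °C, then EDTA-quenched and probed with Eu-labelled phospho-specific antibody.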
For orientation: TR-FRET usually uses a lanthanide donor and a delayed reading to cut background.

For a further test, the target named is CDK1/CCNB1 (Homo sapiens, UniProt P06493). In words: CDK1 homogeneous time-resolved fluorescence (HTRF) kinase assay. The test is classed as biochemical. The conditions noted are these: CDK1/CCNB. In outline: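 HTRF assay with 0.5 nM CDK1/CCNB1, 1 mM ATP, 50 nM ULight-eIF4E-BP1 (Thr37/46) peptide; compound preincubated 20 min, reaction 60 min at 23 °C, EDTA stop, Eu-anti-phospho antibody detection. 11-point half-log titration from 10 μM, 1% DMSO; IC50 from 665 nm or 665/615 signal.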

[1] abbreviates: 25-250 nM marked x, read-out: CDK2/CCNE IC50 25-250 nM.
Where [2] appears, read: >250 nM marked x, read-out: CDK1/CCNB IC50 >250 nM.
Where [3] appears, read: >250 nM marked x, read-out: CDK2/CCNE IC50 >250 nM.

Sequence of CDK1/CCNB1 (P06493 whole entry): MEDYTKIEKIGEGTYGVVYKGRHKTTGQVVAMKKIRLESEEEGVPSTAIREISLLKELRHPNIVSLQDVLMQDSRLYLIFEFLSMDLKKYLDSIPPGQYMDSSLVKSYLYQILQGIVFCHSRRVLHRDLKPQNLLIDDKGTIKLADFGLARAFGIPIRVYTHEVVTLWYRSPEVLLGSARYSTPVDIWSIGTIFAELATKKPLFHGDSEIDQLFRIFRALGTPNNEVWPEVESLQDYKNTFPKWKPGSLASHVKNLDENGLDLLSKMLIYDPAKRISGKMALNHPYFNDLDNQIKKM
Sequence of CDK1/CCNB1 (P14635 whole entry partner): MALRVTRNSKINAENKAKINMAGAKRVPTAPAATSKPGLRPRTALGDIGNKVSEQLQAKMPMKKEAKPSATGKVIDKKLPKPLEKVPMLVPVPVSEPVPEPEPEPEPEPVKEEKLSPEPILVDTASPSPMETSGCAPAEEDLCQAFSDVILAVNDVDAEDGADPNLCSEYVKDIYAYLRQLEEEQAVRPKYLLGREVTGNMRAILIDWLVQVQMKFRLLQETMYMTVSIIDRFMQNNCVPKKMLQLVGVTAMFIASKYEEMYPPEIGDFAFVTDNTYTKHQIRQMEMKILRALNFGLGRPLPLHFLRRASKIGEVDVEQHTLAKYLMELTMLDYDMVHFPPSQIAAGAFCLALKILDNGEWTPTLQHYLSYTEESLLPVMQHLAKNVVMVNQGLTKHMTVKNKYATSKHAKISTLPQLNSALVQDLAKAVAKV

For the compound `N#CC1CCN(c2nccc3cnc(Nc4cccc(CO)c4)cc23)CC1` [Ex 134, 1-(7-((3-(hydroxymethyl)phenyl)amino)-2,6-naphthyridin-1-yl)piperidine-4-carbonitrile], the IC50 at CDK2/CCNE1 (setting [1]) was 25 to 250 nM; on CDK1/CCNB1 (setting [2]) it was greater than 250 nM.

`CS(=O)(=O)c1ccc(Nc2cc3c(-c4cc5cc[nH]c5cn4)nccc3cn2)cc1` [Ex 135, N-(4-(methylsulfonyl)phenyl)-5-(1H-pyrrolo[2,3-c]pyridin-5-yl)-2,6-naphthyridin-3-amine]: the IC50 is 25 to 250 nM at CDK2/CCNE1 (setting [1]) and greater than 250 nM at CDK1/CCNB1 (setting [2]).

As to `N#CC1CCN(c2nccc3cnc(Nc4cccc(C=O)c4)cc23)CC1` [Ex 140, 1-(7-((3-formylphenyl)amino)-2,6-naphthyridin-1-yl)piperidine-4-carbonitrile], the IC50 on CDK2/CCNE1 (setting [1]) was 25 to 250 nM; at CDK1/CCNB1 (setting [2]), greater than 250 nM.

On to `N#CC1CCN(c2nccc3cnc(Nc4cccc(CCO)c4)cc23)CC1` [Ex 143, 1-(7-((3-(2-hydroxyethyl)phenyl)amino)-2,6-naphthyridin-1-yl)piperidine-4-carbonitrile], for which the IC50 was 25 to 250 nM at CDK2/CCNE1 (setting [1]) and greater than 250 nM on CDK1/CCNB1 (setting [2]).

Regarding `Cn1nncc1-c1nccc2cnc(Nc3ccc(S(C)(=O)=O)cc3)cc12` [Ex 144, 5-(1-methyl-1H-1,2,3-triazol-5-yl)-N-(4-(methylsulfonyl)phenyl)-2,6-naphthyridin-3-amine], the IC50 at CDK2/CCNE1 (setting [3]) and on CDK1/CCNB1 (setting [2]) was greater than 250 nM in each case.

As for `CN1CCC(c2nccc3cnc(Nc4ccc(S(C)(=O)=O)cc4)cc23)CC1` [Ex 151, 5-(1-methylpiperidin-4-yl)-N-(4-(methylsulfonyl)phenyl)-2,6-naphthyridin-3-amine], the IC50 was 25 to 250 nM on CDK2/CCNE1 (setting [1]) and greater than 250 nM on CDK1/CCNB1 (setting [2]).

With `CCN1CCC(c2nccc3cnc(Nc4ccc(S(C)(=O)=O)cc4)cc23)CC1` [Ex 152, 5-(1-ethylpiperidin-4-yl)-N-(4-(methylsulfonyl)phenyl)-2,6-naphthyridin-3-amine], the IC50 was 25 to 250 nM at CDK2/CCNE1 (setting [1]) and greater than 250 nM at CDK1/CCNB1 (setting [2]).

Take `CS(=O)(=O)c1ccc(Nc2cc3c(C4CCN(CC5CCCCC5)CC4)nccc3cn2)cc1` [Ex 153, 5-(1-(cyclohexylmethyl)piperidin-4-yl)-N-(4-(methylsulfonyl)phenyl)-2,6-naphthyridin-3-amine]: the IC50 at CDK2/CCNE1 (setting [3]) and on CDK1/CCNB1 (setting [2]) was greater than 250 nM throughout.

On to `CC(=O)N1CCC(c2nccc3cnc(Nc4ccc(S(C)(=O)=O)cc4)cc23)CC1` [Ex 154, 1-(4-(7-((4-(methylsulfonyl)phenyl)amino)-2,6-naphthyridin-1-yl)piperidin-1-yl)ethan-1-one], for which the IC50 on CDK2/CCNE1 (setting [3]) and on CDK1/CCNB1 (setting [2]) was greater than 250 nM throughout.

As for `C=CC(=O)N1CCC(c2nccc3cnc(Nc4ccc(S(C)(=O)=O)cc4)cc23)CC1` [Ex 155, 1-(4-(7-((4-(methylsulfonyl)phenyl)amino)-2,6-naphthyridin-1-yl)piperidin-1-yl)prop-2-en-1-one], the IC50 on CDK2/CCNE1 (setting [3]) and on CDK1/CCNB1 (setting [2]) was greater than 250 nM in each case.

Turning to `C=CS(=O)(=O)c1ccc(Nc2cc3c(-c4ccc(O)cc4)nccc3cn2)cc1` [Ex 157, 4-(7-((4-(vinylsulfonyl)phenyl)amino)-2,6-naphthyridin-1-yl)phenol], the results for the IC50 at CDK2/CCNE1 (setting [1]) and on CDK1/CCNB1 (setting [2]) were 25 to 250 nM and greater than 250 nM, respectively.

`Cc1cc2nn(C)cc2cc1-c1nccc2cnc(NC3CCN(S(C)(=O)=O)CC3)cc12` [Ex 159, 5-(2,6-dimethyl-2H-indazol-5-yl)-N-(1-(methylsulfonyl)piperidin-4-yl)-2,6-naphthyridin-3-amine]: the results for the IC50 at CDK2/CCNE1 (setting [1]) and at CDK1/CCNB1 (setting [2]) were 25 to 250 nM and greater than 250 nM, respectively.

On to `C=CS(=O)(=O)c1ccc(Nc2cc3c(-c4cccc(C(F)(F)F)c4)nccc3cn2)cc1` [Ex 160, 5-(3-(trifluoromethyl)phenyl)-N-(4-(vinylsulfonyl)phenyl)-2,6-naphthyridin-3-amine], for which the IC50 is 25 to 250 nM at CDK2/CCNE1 (setting [1]) and greater than 250 nM at CDK1/CCNB1 (setting [2]).

In the case of `C=CS(=O)(=O)c1ccc(Nc2cc3c(-c4cccc(OC(F)(F)F)c4)nccc3cn2)cc1` [Ex 161, 5-(3-(trifluoromethoxy)phenyl)-N-(4-(vinylsulfonyl)phenyl)-2,6-naphthyridin-3-amine], the IC50 on CDK2/CCNE1 (setting [3]) and on CDK1/CCNB1 (setting [2]) was greater than 250 nM in each case.

For `CS(=O)(=O)c1ccc(Nc2cc3c(-c4ccc5c(c4)C4(CC4)C(=O)N5)nccc3cn2)cc1` [Ex 163, 5'-(7-((4-(methylsulfonyl)phenyl)amino)-2,6-naphthyridin-1-yl)spiro[cyclopropane-1,3'-indolin]-2'-one], the IC50 on CDK2/CCNE1 (setting [1]) is 25 to 250 nM; on CDK1/CCNB1 (setting [2]), greater than 250 nM.

Regarding `Cc1c(-c2nccc3cnc(Nc4ccc(S(C)(=O)=O)cc4)cc23)ccc2c1cnn2C1CCOCC1` [Ex 164, 5-(4-methyl-1-(tetrahydro-2H-pyran-4-yl)-1H-indazol-5-yl)-N-(4-(methylsulfonyl)phenyl)-2,6-naphthyridin-3-amine], the IC50 on CDK2/CCNE1 (setting [1]) is 25 to 250 nM; on CDK1/CCNB1 (setting [2]) it was greater than 250 nM.

`Cc1c(-c2nccc3cnc(Nc4ccc(S(C)(=O)=O)cc4)cc23)ccc2nn(C3CCOCC3)cc12` [Ex 165, 5-(4-methyl-2-(tetrahydro-2H-pyran-4-yl)-2H-indazol-5-yl)-N-(4-(methylsulfonyl)phenyl)-2,6-naphthyridin-3-amine]: the IC50 on CDK2/CCNE1 (setting [1]) was 25 to 250 nM; at CDK1/CCNB1 (setting [2]), greater than 250 nM.

In the case of `CS(=O)(=O)c1ccc(Nc2cc3c(C#C[C@H]4CC[C@H](C(N)=O)CC4)nccc3cn2)cc1` [Ex 168, (1r,4r)-4-((7-((4-(methylsulfonyl)phenyl)amino)-2,6-naphthyridin-1-yl)ethynyl)cyclohexane-1-carboxamide], the IC50 is less than 25 nM on CDK2/CCNE1 (<25 nM, read-out: CDK2/CCNE IC50 <25 nM) and 25 to 250 nM on CDK1/CCNB1 (25-250 nM marked x, read-out: CDK1/CCNB IC50 25-250 nM).

In the case of `CC(C)N1CCC(c2nccc3cnc(Nc4ccc(S(C)(=O)=O)cc4)cc23)CC1` [Ex 170, 5-(1-isopropylpiperidin-4-yl)-N-(4-(methylsulfonyl)phenyl)-2,6-naphthyridin-3-amine], the IC50 on CDK2/CCNE1 (setting [3]) and at CDK1/CCNB1 (setting [2]) was greater than 250 nM each time.

For the compound `C=CCN1CCC(c2nccc3cnc(Nc4ccc(S(C)(=O)=O)cc4)cc23)CC1` [Ex 171, 5-(1-allylpiperidin-4-yl)-N-(4-(methylsulfonyl)phenyl)-2,6-naphthyridin-3-amine], the IC50 on CDK2/CCNE1 (setting [3]) and at CDK1/CCNB1 (setting [2]) was greater than 250 nM throughout.

As for `CS(=O)(=O)c1ccc(Nc2cc3c(C4CCN(Cc5ccccc5)CC4)nccc3cn2)cc1` [Ex 172, 5-(1-benzylpiperidin-4-yl)-N-(4-(methylsulfonyl)phenyl)-2,6-naphthyridin-3-amine], the IC50 at CDK2/CCNE1 (setting [3]) and at CDK1/CCNB1 (setting [2]) was greater than 250 nM throughout.

Regarding `COc1ccc(CN2CCC(c3nccc4cnc(Nc5ccc(S(C)(=O)=O)cc5)cc34)CC2)cc1` [Ex 173, 5-(1-(4-methoxybenzyl)piperidin-4-yl)-N-(4-(methylsulfonyl)phenyl)-2,6-naphthyridin-3-amine], the IC50 at CDK2/CCNE1 (setting [3]) and on CDK1/CCNB1 (setting [2]) was greater than 250 nM each time.

For the compound `CS(=O)(=O)c1ccc(Nc2cc3c(C4CCN(Cc5cccnc5)CC4)nccc3cn2)cc1` [Ex 174, N-(4-(methylsulfonyl)phenyl)-5-(1-(pyridin-3-ylmethyl)piperidin-4-yl)-2,6-naphthyridin-3-amine], the IC50 at CDK2/CCNE1 (setting [3]) and at CDK1/CCNB1 (setting [2]) was greater than 250 nM throughout.

On to `CS(=O)(=O)c1ccc(Nc2cc3c(C4CCN(S(C)(=O)=O)CC4)nccc3cn2)cc1` [Ex 175, N-(4-(methylsulfonyl)phenyl)-5-(1-(methylsulfonyl)piperidin-4-yl)-2,6-naphthyridin-3-amine], for which the IC50 on CDK2/CCNE1 (setting [3]) and at CDK1/CCNB1 (setting [2]) was greater than 250 nM each time.

For the origin of these results see patent US20260325533A1, “CDK INHIBITOR COMPOUNDS” (ALEKSIA THERAPEUTICS, INC., priority 2023, published 2026).
